The data set is described as follows: gradient 5% acetonitrile 3 min, to 50% in 2 min, to 85% in 15 min, held 3 min, 100 µL/min. The note with it: column: Zorbax Extend-C18 2.1 x 50 mm; eluents: water / acetonitrile, 0.1% formic acid. The essentials:
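Values are retention times taken from adduct peaks that software picked and an analyst inspected. The pure standards were run as mixtures of ~100 molecules on HPLC linked to a quadrupole time-of-flight mass spectrometer, in positive and negative ionization mode. A Zorbax Extend-C18 column (2.1 × 50 mm, 1.8 μm) was used at 100 μL/min with water and acetonitrile, each including 0.1% formic acid.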
`O=C(Cn1c(=O)c2cccn2c2ccc(F)cc21)N1CCC(N2CCCCC2)CC1` yielded an RP-LC retention time of 606 s.
The result for `Cc1cc(C)n(-c2ccc(C(=O)N3CCN(c4ccccc4)CC3)cn2)n1` reads 949 s.
The compound `CCCNC(=O)N1C[C@@H]2C(=O)N(CCc3ccccc3)C(=O)[C@@H]2C1` registered an RP-LC retention time of 716 s.
For `COC(=O)CC(=O)Nc1cc2c(cc1N1CCOCC1)n(C)c(=O)n2C`, the RP-LC retention time is 597 s.
The result for `CCc1nc(OCC(=O)Nc2cc(Cl)c(OC)cc2OC)c2ccccc2n1` reads 848 s; that for `COc1ccc(CN2C=C(C(=O)OCc3nc(-c4cccc(C)c4)no3)C(C)=NS2(=O)=O)cc1`, 1170 s; that for `Cc1nc(-c2ccc(C(F)(F)F)cc2)ncc1C(=O)NCc1ccco1`, 1020 s.
`COc1ccccc1CNC(=O)c1nnc(-c2ccc(S(=O)(=O)N3CCCCC3)cc2)o1` yielded an RP-LC retention time of 911 s.
To `Cc1ccc2oc(-c3nnc(C(=O)NCCN4CCCCCC4)o3)c(C)c2c1` belongs 720 s; to `Cc1cc(=O)n(CC(=O)N2CCCc3ccccc32)c(N2CCCC2)n1`, 665 s; to `COc1cc(NC(=O)CSc2nccc(N3CCN(c4cccc(OC)c4)CC3)n2)cc(OC)c1`, 667 s.
To `O=C(Cn1cccc1-c1nnc(-c2ccccc2)o1)Nc1ccc(F)c(F)c1` belongs 997 s.
The result for `CCc1nn(C)c(=O)c2cc(S(=O)(=O)NCc3ccccc3)cn12` reads 831 s; that for `CCn1c(=O)c2ccccc2n(Cc2nc(-c3ccc(F)cc3)no2)c1=O`, 1010 s; that for `O=C(Cn1c(=O)c2cccn2c2ccc(F)cc21)NCc1cccc(Br)c1`, 903 s.
Turning to `Cc1coc2cc3oc(=O)c(CC(=O)N4CCC(C(N)=O)CC4)c(C)c3cc12`, the RP-LC retention time was found to be 654 s.
The result for `CCCCN1C(=O)C(NC(=O)c2cccc(OC)c2)(C(F)(F)F)C(C(C)=O)=C1C` (centres undefined) reads 916 s; that for `Cc1cc2c(cc1C(=O)NCc1cccs1)OCCCO2`, 804 s.
The result for `Cc1cc(N2CCCC2)nc(N2CCN(S(=O)(=O)c3ccc(Br)cc3)CC2)n1` reads 820 s; that for `CC[C@H]1[C@@H]2C[C@H]3[C@@H]4N(C)c5ccccc5[C@]45C[C@@H]([C@H]2[C@H]5O)N3[C@@H]1O`, 652 s.
The compound `CCCn1cnc2cc(CNC(=O)C3CC(=O)N(c4cccc(Cl)c4)C3)ccc21` (centres undefined) had an RP-LC retention time of 659 s.
`CN(CCNC(=O)c1ccc2c(c1)NC(=O)C1CCCCN21)C1CCCCC1` (centres undefined) gave an RP-LC retention time of 630 s.
To `C=CCNC(=O)c1nc(C(=O)N2CCc3ccccc3C2)cs1` belongs 811 s.
The result for `Cc1ccc(C)c(N2CCN(C(=O)c3cn4c(n3)CCCC4)CC2)c1` reads 689 s; that for `Cc1sc(NC(=O)Cc2csc(-c3ccccc3)n2)nc1-c1ccc(Cl)cc1`, 1280 s.
The result for `O=C1CCN(C(=O)C2CCN(C(=O)C3CC3)CC2)CCCCCCN1` reads 598 s.
Consider `O=C(Cn1c(=O)c2cc(C3CC3)nn2c2ncccc21)Nc1cccc(F)c1`, for which the RP-LC retention time came to 778 s.
The result for `CSc1nnc(-c2nn(C)c3c2CN(C(=O)c2ccc(F)cc2)CC3)n1C` reads 656 s; that for `Cc1cc(C)cc(NC(=O)c2cc(C)n3nccc3n2)c1`, 1020 s.
The result for `Cc1ccc(CNC(=O)CC2CCOCC2)o1` reads 663 s.
The result for `O=C(Cc1cccs1)Nc1cccc(OCc2nnc(-c3ccc(Cl)cc3)o2)c1` reads 1010 s; that for `CCC(C)NC(=O)c1ccc(Cn2nc(C)c(S(=O)(=O)N3CCCCC3)c2C)cc1` (centres undefined), 874 s.
Consider `CC(C)CC(=O)Nc1ccc(-n2cnc(C(=O)N3CC(C)CC(C)C3)c2)nc1` (centres undefined), for which the RP-LC retention time came to 839 s.
The result for `O=C(NCCCN1CCCC1=O)c1cc2c(s1)CCN(C(=O)c1ccc(F)cc1)C2` reads 670 s.
The result for `Cc1nn(-c2cc(N(C)C)ncn2)c(C)c1CCC(=O)NCc1ccccc1` reads 716 s; that for `CCc1ccc(S(=O)(=O)c2cnc(N3CCN(c4ccccc4)CC3)nc2N)cc1`, 1140 s.
To `O=C(c1cccnc1)N1CCN(c2nnnn2-c2ccccc2)CC1` belongs 588 s; to `CCOC(=O)C1CCN(C(=O)c2cn3c(n2)CCCC3)CC1`, 586 s; to `CCOc1cccc(CN2Cc3ccccc3OC3(CCN(CCOC)CC3)C2)c1`, 619 s.
Take `COCCn1nnnc1C1CC2(CCOCC2)C(=O)N1Cc1cc(F)cc(F)c1` (centres undefined): the RP-LC retention time amounted to 740 s.
The result for `CCc1nc(OCC(=O)Nc2ccc(F)c(Cl)c2)c2ccccc2n1` reads 888 s.
On to `COc1ccc(S(=O)(=O)Nc2cccnc2Nc2ccc(O)cc2)cc1`, for which the RP-LC retention time is 687 s.
The result for `COCc1nc(C2CCN(C(=O)C3(c4ccccc4)CC3)C2)no1` (centres undefined) reads 750 s; that for `Cc1nc(N2CCN(C(=O)Nc3cccc(C(F)(F)F)c3)CC2)cc(-n2cccn2)n1`, 947 s; that for `CCOc1nc2ccccc2nc1N1CCCC(C(=O)Nc2ccc(OC)cc2OC)C1` (centres undefined), 1180 s.
The result for `O=C(Cn1c(=O)cc(C(=O)N2CCCC2)c2ccccc21)Nc1ccccc1Cl` reads 714 s; that for `CCOc1ccccc1N1CCN(S(=O)(=O)c2nn(C)cc2C(=O)NCC2CC2)CC1`, 973 s; that for `O=C(Nc1ccc(F)c(Cl)c1)N1CCCC(Cn2c(C3CC3)nc3cccnc32)C1` (centres undefined), 744 s.
The result for `Cn1c(=O)n(C)c2cc(CNc3ccc(Cl)cc3Cl)ccc21` reads 1070 s; that for `COc1cccc(C(=O)N2CCc3cc(-c4csc(C)n4)ccc32)c1`, 988 s; that for `COc1ccc(OC)c(S(=O)(=O)N2CCC(Cn3c(C)cnc3C)C2)c1` (centres undefined), 626 s.
For `O=C(CC1CCCC1)Nc1cnc(-c2ccccc2)nc1`, the RP-LC retention time worked out at 990 s.
The compound `CCc1nncn1C1CCN(C(=O)c2cc(F)ccc2F)CC1` displayed an RP-LC retention time of 604 s.
The compound `CC(C)(O)CC[C@@H](O)[C@@](C)(O)[C@H]1CC[C@@]2(O)C3=CC(=O)[C@@H]4C[C@@H](O)[C@@H](O)C[C@]4(C)[C@H]3CC[C@]12C` displayed an RP-LC retention time of 607 s.
The result for `CC(C)N1C(=O)c2cccnc2Sc2cc(NC(=O)Cc3ccccc3Cl)ccc21` reads 906 s; that for `O=C(Cc1cccc(Cl)c1)Nc1cc(-c2ccccn2)no1`, 843 s.
To `Cc1cc2c(cc1NC(=O)CCc1ccccc1)n(C)c(=O)n2C` belongs 715 s.
The result for `CC(C)Cn1cnc2c(-c3ccc(F)cc3)csc2c1=O` reads 1030 s; that for `O=C(NCCc1ccccc1)C1CCCN(c2ncnc3c2nc2n3CCCCC2)C1` (centres undefined), 758 s.

Source of the values: the METLIN SMRT retention time set (Domingo-Almenara et al. 2019).
